The source of these data is ChEMBL document CHEMBL3886179, “Substituted 6, 7-dialkoxy-3-isoquinoline derivatives as inhibitors of phosphodiesterase 10 (PDE 10A)” (2015).

The target of the test is cAMP and cAMP-inhibited cGMP 3',5'-cyclic phosphodiesterase 10A (Homo sapiens, UniProt Q9Y233). Put plainly: Diaxonhit Phosphodiesterase Assay: The phosphodiesterase assay was developed using the LANCE cAMP kit (PerkinElmer). The assay buffer contained HBSS with 5 mM HEPES, 0.1% BSA, and 1.5 mM MgCl2, pH 7.4. PDE10A (BPS Bioscience) was used at 200 pg/well (with a specific activity of 3200 pmole/min/ug with assay conditions: 10 mM Tris-HCl, pH 7.4, 10 mM MgCl2, 1 mM MnCl2, 200 uM cAMP, 2.5 kU 5' nucleotidase, 37° C., 20 min) and PDE4D3 (BPS Bioscience) was used at 100 pg/well (with a specific activity of 32713 pmole/min/ug with assay conditions: 10 mM Tris-HCl, pH 7.4, 10 mM MgCl2, 1 mM MnCl2, 200 uM cAMP, 2.5 kU 5' nucleotidase, 37° C., 20 min). The Biotin-cAMP tracer, supplied in 10 mmol/L Tris-HCl buffered (pH 8.0) salt solution with 1 mmol/L ethylenediaminetetraacetic acid (EDTA), 0.1% bovine serum albumin (BSA), and 0.05% sodium azide, is used at a dilution of 1/375. The assay detection mixture contained the LANCE Eu-W8044 labeled streptavidin 1/2250 (supplied in 50 mmol/L Tris-HCl buffer).
Sequence of cAMP and cAMP-inhibited cGMP 3',5'-cyclic phosphodiesterase 10A (Q9Y233 whole entry): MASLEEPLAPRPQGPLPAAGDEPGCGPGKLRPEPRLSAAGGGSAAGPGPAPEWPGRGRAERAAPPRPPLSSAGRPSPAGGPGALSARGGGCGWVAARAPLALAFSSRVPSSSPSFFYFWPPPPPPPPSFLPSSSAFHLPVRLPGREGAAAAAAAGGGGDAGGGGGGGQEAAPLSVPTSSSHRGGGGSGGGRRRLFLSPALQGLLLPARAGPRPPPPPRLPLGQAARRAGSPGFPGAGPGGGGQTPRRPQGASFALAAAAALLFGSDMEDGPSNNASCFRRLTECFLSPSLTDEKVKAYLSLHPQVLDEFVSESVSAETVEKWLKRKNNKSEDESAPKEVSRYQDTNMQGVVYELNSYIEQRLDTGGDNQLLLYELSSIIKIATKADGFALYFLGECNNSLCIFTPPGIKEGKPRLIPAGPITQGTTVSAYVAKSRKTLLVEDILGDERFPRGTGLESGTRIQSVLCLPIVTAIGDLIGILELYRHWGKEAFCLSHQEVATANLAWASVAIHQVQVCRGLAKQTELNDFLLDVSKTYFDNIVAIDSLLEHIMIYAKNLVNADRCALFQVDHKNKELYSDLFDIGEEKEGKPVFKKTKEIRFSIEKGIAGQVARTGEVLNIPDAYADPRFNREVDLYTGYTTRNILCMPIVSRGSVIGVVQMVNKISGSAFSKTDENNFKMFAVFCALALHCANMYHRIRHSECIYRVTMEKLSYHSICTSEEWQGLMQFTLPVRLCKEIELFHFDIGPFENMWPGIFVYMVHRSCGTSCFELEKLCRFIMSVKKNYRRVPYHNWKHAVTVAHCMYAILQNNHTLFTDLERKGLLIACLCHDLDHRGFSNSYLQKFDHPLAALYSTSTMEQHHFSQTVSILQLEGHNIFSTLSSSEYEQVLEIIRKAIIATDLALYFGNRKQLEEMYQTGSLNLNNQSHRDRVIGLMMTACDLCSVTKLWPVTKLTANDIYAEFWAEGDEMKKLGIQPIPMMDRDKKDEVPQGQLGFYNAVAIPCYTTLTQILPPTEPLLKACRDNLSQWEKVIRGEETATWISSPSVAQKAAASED
With `COCc1ncc(Cc2ccc3cccc(N)c3n2)c2cc(OC)c(OC)cc12`, the IC50 (in general, the concentration that inhibits the measured activity by half) was 8.6 nM.

Consider `COCc1ncc(Cc2cnc3ccc(O)c(C(F)(F)F)c3c2)c2cc(OC)c(OC)cc12`, for which the IC50 was 4.5 nM.

On to `COc1cc2cncc(Cc3ccc4nc(-c5ccc(CO)cc5)oc4c3)c2cc1OC`, for which the IC50 is 20 nM.

As to `COc1cc2cncc(Cc3ccc4cccc(NS(N)(=O)=O)c4n3)c2cc1OC`, the IC50 came to 0.42 nM.

Turning to `CCCc1ncc(Cc2cnc3ccc(O)cc3c2)c2cc(OC)c(OC)cc12`, the IC50 worked out at 9.4 nM.

Take `CCCc1ncc(Cc2ccc3cccc(NC(=O)COC(C)=O)c3n2)c2cc(OC)c(OC)cc12`: the IC50 was found to be 204 nM.

Consider `CCCc1ncc(Cc2ccc3cccc(NC(=O)CO)c3n2)c2cc(OC)c(OC)cc12`, for which the half-maximal inhibitory concentration (IC50) amounted to 15 nM.

Turning to `COc1cc2cncc(Cc3ccc4oc(-c5ccc(N)cc5)nc4c3)c2cc1OC`, the IC50 amounted to 49 nM.

Take `CCc1ncc(Cc2ccc3cccc(OC(C)=O)c3n2)c2cc(OC)c(OC)cc12`: the 50% inhibitory concentration (IC50) stood at 3110 nM.

As to `COCc1ncc(Cc2ccc3cccc(OCCO)c3n2)c2cc(OC)c(OC)cc12`, the IC50 turned out to be 28 nM.

For `COCc1ncc(Cc2ccc3cccc(O)c3n2)c2cc(OC)c(OC)cc12`, the 50% inhibitory concentration (IC50) stood at 19 nM.

Take `COc1cc2cncc(Cc3ccc4oc(-c5ccc(CO)cc5)nc4c3)c2cc1OC`: the IC50 is 19 nM.

As for `COc1cc2c(Cc3ccc4cccc(NS(N)(=O)=O)c4n3)cnc(C)c2cc1OC`, the IC50 was found to be 0.71 nM.

Take `COc1cc2cncc(Cc3ccc4oc(-c5cccc(CO)c5)nc4c3)c2cc1OC`: the IC50 amounted to 28 nM.

On to `COc1cc2cncc(Cc3ccc4oc(-c5ccccc5CO)nc4c3)c2cc1OC`, for which the IC50 worked out at 95 nM.

On to `COc1cc2cncc(Cc3cnc4ccc(OCC(=O)O)cc4c3)c2cc1OC`, for which the IC50 was found to be 7.9 nM.

As for `COc1cc2cncc(Cc3ccc4cccc(N)c4n3)c2cc1OC`, the IC50 was 13 nM.

For `CCOC(=O)COc1cccc2ccc(Cc3cnc(COC)c4cc(OC)c(OC)cc34)nc12`, the IC50 came to 71 nM.

On to `CCCc1ncc(Cc2ccc3cccc(OC(C)=O)c3n2)c2cc(OC)c(OC)cc12`, for which the concentration for half-maximal inhibition (IC50) came to 109 nM.

`COc1cc2cncc(Cc3ccc4oc(-c5ccc(C#N)cc5)nc4c3)c2cc1OC`: the IC50 was found to be 148 nM.

For `COc1cc2c(Cc3cnc4ccc(O)cc4c3)cnc(C)c2cc1OC`, the IC50 amounted to 18 nM.

Turning to `COCc1ncc(Cc2cnc3ccc(O)cc3c2)c2cc(OC)c(OC)cc12`, the IC50 stood at 5.6 nM.

With `CCCc1ncc(Cc2cnc3ccc(O)c(C(F)(F)F)c3c2)c2cc(OC)c(OC)cc12`, the IC50 was 13 nM.

With `COCc1ncc(Cc2ccc3cccc(OCC(N)=O)c3n2)c2cc(OC)c(OC)cc12`, the IC50 was found to be 21 nM.

On to `CCCc1ncc(Cc2ccc3oc(=O)[nH]c3c2)c2cc(OC)c(OC)cc12`, for which the IC50 was determined as 64 nM.
